# US20070049564A1 (Wyeth, priority 2005, published 2007)
# Read-outs that look alike come from different tables or passages of the source.
# Tests used:
# S. pneumoniae* GC 4465 = assay: MIC, broth microdilution; settings: Streptococcus pneumoniae
# E. coli GC 2234 = assay: MIC, broth microdilution; settings: Escherichia coli
# E. coli GC 3226 = assay: MIC, broth microdilution; settings: Escherichia coli
# E. coli GC 4559 = assay: MIC, broth microdilution; settings: Escherichia coli
# Staph. aureus Smith = assay: In vivo activity (oral, iv; ED50) against Staph. aureus Smith in mice
# Procedure: Representative examples of compounds of Formula I were tested for the oral efficacy using S. aureus Smith in mice.
# E. faecalis GC 2267 = assay: MIC, broth microdilution; settings: Enterococcus faecalis
# E. coli GC 2236 = assay: MIC, broth microdilution; settings: Escherichia coli
# E. coli GC 2232 = assay: MIC, broth microdilution; settings: Escherichia coli
# S. epidermidis GC 4935 = assay: MIC, broth microdilution; settings: Staphylococcus epidermidis
# S. pyogenes GC 4563 = assay: MIC, broth microdilution; settings: Streptococcus pyogenes
# E. coli GC 2271 = assay: MIC, broth microdilution; settings: Escherichia coli
# S. aureus GC 1131 = assay: MIC, broth microdilution; settings: Staphylococcus aureus
# S. pneumoniae+ GC 4465 = assay: MIC, broth microdilution; settings: Streptococcus pneumoniae
# E. faecalis GC 2265 = assay: MIC, broth microdilution; settings: Enterococcus faecalis
# E. coli GC 2272 = assay: MIC, broth microdilution; settings: Escherichia coli
# S. aureus GC 6335 = assay: MIC, broth microdilution; settings: Staphylococcus aureus
# E. coli GC 2203 = assay: MIC, broth microdilution; settings: Escherichia coli
# S. agalactiae GC 4564 = assay: MIC, broth microdilution; settings: Streptococcus agalactiae
# Procedure: (§1) Antimicrobial susceptibility testing. The in vitro activities of the antibiotics are determined by the broth microdilution method as recommended by the National Committee for Clinical Laboratory Standards (NCCLS) (1). Mueller-Hinton II broth (MHBII)(BBL Cockeysville, Md.) is the medium employed in the testing procedures. Microtiter plates containing serial dilutions of each antimicrobial agent are inoculated with each organism to yield the appropriate density (10^5 CFU/ml) in a 100 μl final volume. The plates are incubated for 18-22 hours at 35° C. in ambient air.
# Representative compounds were first incubated in mouse serum for an hour prior to the in vitro testing against a panel of selected gram-positive and gram-negative bacteria strains. All compounds were also pre-incubated in water for an hour prior to testing as control. Representative compounds of Formula I were incubated in human serum prior to MIC determination.
# P. aeruginosa GC 2214 = assay: MIC, broth microdilution; settings: Pseudomonas aeruginosa
# Procedure: as §1
# Representative compounds were first incubated in mouse serum for an hour prior to the in vitro testing against a panel of selected gram-positive and gram-negative bacteria strains. All compounds were also pre-incubated in water for an hour prior to testing as control.
# E. faecalis GC 4555 = assay: MIC, broth microdilution; settings: Enterococcus faecalis
# [1] = read-out: MINIMAL INHIBITORY CONCENTRATION MIC, pre-incubated in Mouse Serum
# [2] = read-out: MINIMAL INHIBITORY CONCENTRATION MIC, pre-incubated in Water
# [3] = GC2234, read-out: MINIMAL INHIBITORY CONCENTRATION MIC, pre-incubated in Mouse Serum
# [4] = GC2234, read-out: MINIMAL INHIBITORY CONCENTRATION MIC, pre-incubated in Water
# [5] = GC3226, read-out: MINIMAL INHIBITORY CONCENTRATION MIC, pre-incubated in Mouse Serum
# [6] = GC3226, read-out: MINIMAL INHIBITORY CONCENTRATION MIC, pre-incubated in Water
# [7] = GC4559, read-out: MINIMAL INHIBITORY CONCENTRATION MIC, pre-incubated in Mouse Serum
# [8] = GC4559, read-out: MINIMAL INHIBITORY CONCENTRATION MIC, pre-incubated in Water
# [9] = Staphylococcus aureus, in Mus musculus, iv, read-out: ED50 SIV (Staph aureus Smith)
# [10] = Staphylococcus aureus, in Mus musculus, po, read-out: ED50 SOD (Staph aureus Smith)
# [11] = Staphylococcus aureus, in Mus musculus, po, read-out: ED50 Staph Smith SOD
# [12] = iv, read-out: ED50 Staph Smith SIV
# [13] = GC2267, read-out: MINIMAL INHIBITORY CONCENTRATION MIC, pre-incubated in Mouse Serum
# [14] = GC2267, read-out: MINIMAL INHIBITORY CONCENTRATION MIC, pre-incubated in Water
# [15] = GC2236, read-out: MINIMAL INHIBITORY CONCENTRATION MIC, pre-incubated in Mouse Serum
# [16] = GC2236, read-out: MINIMAL INHIBITORY CONCENTRATION MIC, pre-incubated in Water
# [17] = GC2232, read-out: MINIMAL INHIBITORY CONCENTRATION MIC, pre-incubated in Mouse Serum
# [18] = GC2232, read-out: MINIMAL INHIBITORY CONCENTRATION MIC, pre-incubated in Water
# [19] = GC4935, read-out: MINIMAL INHIBITORY CONCENTRATION MIC, pre-incubated in Mouse Serum
# [20] = GC4935, read-out: MINIMAL INHIBITORY CONCENTRATION MIC, pre-incubated in Water
# [21] = GC4563, read-out: MINIMAL INHIBITORY CONCENTRATION MIC, pre-incubated in Mouse Serum
# [22] = GC4563, read-out: MINIMAL INHIBITORY CONCENTRATION MIC, pre-incubated in Water
# [23] = GC2271, read-out: MINIMAL INHIBITORY CONCENTRATION MIC, pre-incubated in Mouse Serum
# [24] = GC2271, read-out: MINIMAL INHIBITORY CONCENTRATION MIC, pre-incubated in Water
# [25] = GC1131, read-out: MINIMAL INHIBITORY CONCENTRATION MIC, pre-incubated in Mouse Serum
# [26] = GC1131, read-out: MINIMAL INHIBITORY CONCENTRATION MIC, pre-incubated in Water
# [27] = GC2265, read-out: MINIMAL INHIBITORY CONCENTRATION MIC, pre-incubated in Mouse Serum
# [28] = GC2265, read-out: MINIMAL INHIBITORY CONCENTRATION MIC, pre-incubated in Water
# [29] = GC2272, read-out: MINIMAL INHIBITORY CONCENTRATION MIC, pre-incubated in Mouse Serum
# [30] = GC2272, read-out: MINIMAL INHIBITORY CONCENTRATION MIC, pre-incubated in Water
# [31] = GC6335, read-out: MINIMAL INHIBITORY CONCENTRATION MIC, pre-incubated in Mouse Serum
# [32] = GC6335, read-out: MINIMAL INHIBITORY CONCENTRATION MIC, pre-incubated in Water
# [33] = GC2203, read-out: MINIMAL INHIBITORY CONCENTRATION MIC, pre-incubated in Mouse Serum
# [34] = GC2203, read-out: MINIMAL INHIBITORY CONCENTRATION MIC, pre-incubated in Water
# [35] = GC4564, read-out: MINIMAL INHIBITORY CONCENTRATION MIC, pre-incubated in Mouse Serum
# [36] = GC4564, read-out: MINIMAL INHIBITORY CONCENTRATION MIC, pre-incubated in Water
# [37] = GC2214, read-out: MINIMAL INHIBITORY CONCENTRATION MIC, pre-incubated in Mouse Serum
# [38] = GC2214, read-out: MINIMAL INHIBITORY CONCENTRATION MIC, pre-incubated in Water
# [39] = GC4555, read-out: MINIMAL INHIBITORY CONCENTRATION MIC, pre-incubated in Mouse Serum
# [40] = GC4555, read-out: MINIMAL INHIBITORY CONCENTRATION MIC, pre-incubated in Water
compound,measurement,setting,value
"CCCN(CC(=O)Nc1cc(N(C)C)c2c(c1O)C(=O)C1=C(O)[C@]3(O)C(=O)C(C(N)=O)=C(O)[C@@H](N(C)C)[C@@H]3C[C@@H]1C2)C(=O)OCOC(=O)c1ccsc1 [Example 27, ({[(2-{[(5aR,6aS,7S,10aS)-9-(aminocarbonyl)-4,7-bis(dimethylamino)-1,8,10a,11-tetrahydroxy-10,12-dioxo-5,5a,6,6a,7,10,10a,12-octahydrotetracen-2-yl]amino}-2-oxoethyl)(propyl)amino]carbonyl}oxy)methyl thiophene-3-carboxylate]",MIC,S. pneumoniae* GC 4465; [1],< 0.06 µg/mL
same,MIC,S. pneumoniae* GC 4465; [2],< 0.06 µg/mL
same,MIC,E. coli GC 2234; [3],0.5 µg/mL
same,MIC,E. coli GC 2234; [4],64 µg/mL
same,MIC,E. coli GC 3226; [5],0.5 µg/mL
same,MIC,E. coli GC 3226; [6],> 64 µg/mL
same,MIC,E. coli GC 4559; [7],0.5 µg/mL
same,MIC,E. coli GC 4559; [8],> 64 µg/mL
same,ED50,Staph. aureus Smith; [9],0.44 mg/kg
same,ED50,Staph. aureus Smith; [10],3.9 mg/kg
same,ED50,Staph. aureus Smith; [11],3.9 mg/kg
same,ED50,Staph. aureus Smith; [12],0.44 mg/kg
same,MIC,E. faecalis GC 2267; [13],1 µg/mL
same,MIC,E. faecalis GC 2267; [14],2 µg/mL
same,MIC,E. coli GC 2236; [15],0.5 µg/mL
same,MIC,E. coli GC 2236; [16],64 µg/mL
same,MIC,E. coli GC 2232; [17],0.5 µg/mL
same,MIC,E. coli GC 2232; [18],64 µg/mL
same,MIC,S. epidermidis GC 4935; [19],0.25 µg/mL
same,MIC,S. epidermidis GC 4935; [20],1 µg/mL
same,MIC,S. pyogenes GC 4563; [21],< 0.06 µg/mL
same,MIC,S. pyogenes GC 4563; [22],< 0.06 µg/mL
same,MIC,E. coli GC 2271; [23],0.5 µg/mL
same,MIC,E. coli GC 2271; [24],64 µg/mL
same,MIC,S. aureus GC 1131; [25],0.12 µg/mL
same,MIC,S. aureus GC 1131; [26],0.25 µg/mL
same,MIC,S. pneumoniae+ GC 4465; [1],1 µg/mL
same,MIC,S. pneumoniae+ GC 4465; [2],2 µg/mL
same,MIC,E. faecalis GC 2265; [27],1 µg/mL
same,MIC,E. faecalis GC 2265; [28],2 µg/mL
same,MIC,E. coli GC 2272; [29],0.5 µg/mL
same,MIC,E. coli GC 2272; [30],32 µg/mL
same,MIC,S. aureus GC 6335; [31],0.25 µg/mL
same,MIC,S. aureus GC 6335; [32],0.5 µg/mL
same,MIC,E. coli GC 2203; [33],0.5 µg/mL
same,MIC,E. coli GC 2203; [34],> 64 µg/mL
same,MIC,S. agalactiae GC 4564; [35],0.12 µg/mL
same,MIC,S. agalactiae GC 4564; [36],0.12 µg/mL
same,MIC,P. aeruginosa GC 2214; [37],8 µg/mL
same,MIC,P. aeruginosa GC 2214; [38],> 64 µg/mL
same,MIC,E. faecalis GC 4555; [39],0.25 µg/mL
same,MIC,E. faecalis GC 4555; [40],1 µg/mL
"CCCN(CC(=O)Nc1cc(N(C)C)c2c(c1O)C(=O)C1=C(O)[C@]3(O)C(=O)C(C(N)=O)=C(O)[C@@H](N(C)C)[C@@H]3C[C@@H]1C2)C(=O)OCOC(=O)c1ccc(C(C)(C)C)cc1 [Example 28, ({[(2-{[(5aR,6aS,7S,10aS)-9-(aminocarbonyl)-4,7-bis(dimethylamino)-1,8,10a,11-tetrahydroxy-10,12-dioxo-5,5a,6,6a,7,10,10a,12-octahydrotetracen-2-yl]amino}-2-oxoethyl)(propyl)amino]carbonyl}oxy)methyl 4-tert-butylbenzoate]",MIC,S. pneumoniae* GC 4465; [1],< 0.06 µg/mL
same,MIC,S. pneumoniae* GC 4465; [2],< 0.06 µg/mL
same,MIC,E. coli GC 2234; [3],0.25 µg/mL
same,MIC,E. coli GC 2234; [4],> 64 µg/mL
same,MIC,E. coli GC 3226; [5],0.5 µg/mL
same,MIC,E. coli GC 3226; [6],> 64 µg/mL
same,MIC,E. coli GC 4559; [7],0.5 µg/mL
same,MIC,E. coli GC 4559; [8],> 64 µg/mL
same,ED50,Staph. aureus Smith; [9],0.6 mg/kg
same,ED50,Staph. aureus Smith; [10],6.61 mg/kg
same,ED50,Staph. aureus Smith; [11],6.61 mg/kg
same,ED50,Staph. aureus Smith; [12],0.6 mg/kg
same,MIC,E. faecalis GC 2267; [13],2 µg/mL
same,MIC,E. faecalis GC 2267; [14],64 µg/mL
same,MIC,E. coli GC 2236; [15],0.5 µg/mL
same,MIC,E. coli GC 2236; [16],> 64 µg/mL
same,MIC,E. coli GC 2232; [17],0.5 µg/mL
same,MIC,E. coli GC 2232; [18],> 64 µg/mL
same,MIC,S. epidermidis GC 4935; [19],1 µg/mL
same,MIC,S. epidermidis GC 4935; [20],32 µg/mL
same,MIC,S. pyogenes GC 4563; [21],< 0.06 µg/mL
same,MIC,S. pyogenes GC 4563; [22],< 0.06 µg/mL
same,MIC,E. coli GC 2271; [23],0.25 µg/mL
same,MIC,E. coli GC 2271; [24],> 64 µg/mL
same,MIC,S. aureus GC 1131; [25],0.5 µg/mL
same,MIC,S. aureus GC 1131; [26],32 µg/mL
same,MIC,S. pneumoniae+ GC 4465; [1],2 µg/mL
same,MIC,S. pneumoniae+ GC 4465; [2],0.5 µg/mL
same,MIC,E. faecalis GC 2265; [27],2 µg/mL
same,MIC,E. faecalis GC 2265; [28],64 µg/mL
same,MIC,E. coli GC 2272; [29],0.5 µg/mL
same,MIC,E. coli GC 2272; [30],> 64 µg/mL
same,MIC,S. aureus GC 6335; [31],1 µg/mL
same,MIC,S. aureus GC 6335; [32],16 µg/mL
same,MIC,E. coli GC 2203; [33],0.5 µg/mL
same,MIC,E. coli GC 2203; [34],> 64 µg/mL
same,MIC,S. agalactiae GC 4564; [35],0.25 µg/mL
same,MIC,S. agalactiae GC 4564; [36],0.5 µg/mL
same,MIC,P. aeruginosa GC 2214; [37],16 µg/mL
same,MIC,P. aeruginosa GC 2214; [38],> 64 µg/mL
same,MIC,E. faecalis GC 4555; [39],0.25 µg/mL
same,MIC,E. faecalis GC 4555; [40],64 µg/mL
